# US6365597B1, “4-aza steroids” (Aventis Pharmaceuticals Inc., priority 1996, dated 2002)
smiles,measurement,value
"CC12CCC3C(CC[C@H]4NC(=O)CCC34C)C1CC[C@@H]2OC1CC1 (stereo partly drawn) [MDL 103,432, 17β-Cyclopropyloxy-4-aza-5α-androstan-3-one]",melting point,237.5 to 238.5 °C
